Laboratory results as given in patent US8940497B2, “Enzyme regulating ether lipid signaling pathways” (The Scripps Research Institute, priority 2006, dated 2015).

Legend:
shKIAA1363 cells = experiment: Cell migration assay (Transwell) with shKIAA1363 cells; type: cell-based, human; settings: concentrations up to 1 μM, 18 h
Protocol: Migration assays were performed in Transwell chambers with […] pore-sized membranes coated with 10 μg/ml collagen overnight at 4° C. (Corning). Twenty-four hours before the start of the migration assay, cancer cell lines were plated at concentration of 2.25×10^6 cells per 10 cm dish. At the start of the migration assay, cells were harvested by washing two times with PBS and then serum starved in medium containing 0.05% BSA for 4 hours. Serum starved cells were trypsinized, spun at 1400 rpm for 3 minutes, resuspended, and counted. Cells were diluted to a density of 100,000 cells/ml in medium contain 0.05% BSA, and then 250 μl were placed in the upper chamber of the transwells. Either DMSO, alkyl LPA (10 nM), alkyl LPC (10-1000 nM), or MAGE (10-1000 nM) in medium containing 0.05% BSA was added in the lower chamber, and cells were allowed to migrate for 18 h. The filters were then fixed and stained with Diff-Quik (Dade Behring). Cells that had not migrated through the chamber were removed with a cotton ball. The cells which migrated were counted at a magnification of 40× and from each migration chamber 6 fields were independently counted.
The decrease in tumorigenic potential of shKIAA1363 cells was not associated with a change in proliferation potential in vitro (FIG. 11). shKIAA1363 cells were, however, impaired in their in vitro migration capacity compared to control cells (FIG. 9B). […]

[1] = tested on: background 2-thioacetyl MAGE hydrolyzing activity in membrane proteomes; experiment: Background 2-thioacetyl MAGE hydrolyzing activity in membrane proteomes; type: biochemical; settings: FIG. 14
Protocol: KIAA1363-transfected cell lines were used for substrate-based enzyme activity assays. Membrane proteomes were adjusted to 0.5 mg/ml in 50 mM tris pH 7.4 buffer containing 5 mM CHAPS detergent. Immediately prior to the assay, 5,5′-dithiobis-(2-nitrobenzoic acid) (DTNB, Sigma) was added at 0.5 mM to the membrane proteome to prepare the Assay Buffer. For analysis of inhibitors, 1 ul of a 50× inhibitor solution in DMSO was added to 48 ul of Assay Buffer and preincubated for 20 min at RT. The substrate 2-thioacetyl MAGE (Cayman Chemical) was prepared by evaporating off the original solvent under nitrogen and redissolving the residue in DMSO. 1 ul of 5 mM 2-thioacetyl MAGE stock is added to each assay well to begin the assay. Absorbance is determined at A405 nm.
The background 2-thioacetyl MAGE hydrolyzing activity in membrane proteomes that is not inhibited by AS-115 is inhibited by the broad serine protease inhibitor PMSF (FIG. 14). The IC50 of AS-115 was measured using the 2-thioacetyl MAGE substrate-based assay with Flag-KIAA1363/293T cell membrane proteome (FIG. 15).

## monoalkylglycerol ether [MAGE]
shKIAA1363 cells
  Effect on cancer cell migration: Neither MAGE nor alkyl-LPC impacted cancer cell migration

## O=S(=O)(F)Cc1ccccc1 [PMSF, reference compound]
[1]
  Background 2-thioacetyl MAGE hydrolyzing activity: inhibited
